Test results from US8680073B2, “Stable hyaluronan/steroid formulation” (Genzyme Corporation, priority 2009, dated 2014).

How the values were obtained:
Type in all cases: physicochemical
[1] = pH of HA viscosupplement/steroid formulations by heat treatment
Procedure: (§1) We conducted various experiments in which a number of steroids, both soluble and insoluble, were mixed with HA-based viscosupplements, and the heat stability of the HA/steroid formulations were evaluated at 121° C. for 30 min (simulated autoclave conditions), to achieve a bioburden inactivation of approximate 30 Fo, where Fo is the total heat applied during the cycle to achieve a desired probable inactivation ratio). Formulations were also evaluated after heating at 80° C. for 24 hours (simulated two year room temperature shelf-life).
(§2) Compositions retained suitable pH and osmolarity.

[2] = Rheology of HA viscosupplement/steroid formulations by heat treatment; conditions: formulations of HARC with the steroid, compared to control without steroid
Procedure: as §1
Specifically we tested the TAH mixtures with SYNVISC® and hylastan products of Genzyme Corporation, Framingham Mass.^1 The rheological properties of the heat treated SYNVISC®/steroid and hylastan SGL-80/steroid formulations plus their controls are listed in Tables 1a and 1b, respectively, set out below. 1 Synvisc is a gel-like mixture that is made up of hylan A fluid, hylan B gel, and salt water. Hylan A and hylan B are made from a substance called hyaluronan (also known as sodium hyaluronate) from chicken combs.

[3] = Osmolality of HA viscosupplement/steroid formulations by heat treatment
Procedure: as §1, §2

| Compound | Change in pH after mixing into the HA-based viscosupplements [1] | Effect of the steroid on HARC properties after heat treatment [2] | Change in osmolality after mixing into the HA-based viscosupplements [3] |
| --- | --- | --- | --- |
| CC(C)(C)CC(=O)OCC(=O)[C@@]12OC(C)(C)O[C@@H]1C[C@H]1[C@@H]3CCC4=CC(=O)C=C[C@]4(C)[C@@]3(F)[C@@H](O)C[C@@]12C [TAH, triamcinolone hexacetonide] | no significant change | behaved to comparably to control formulations having no steroid | no significant change |
| CC(=O)OCC(=O)[C@@]1(O)[C@@H](C)C[C@H]2[C@@H]3CCC4=CC(=O)C=C[C@]4(C)[C@@]3(F)[C@@H](O)C[C@@]21C [betamethasone acetate] | – | interacted with HARC | – |
| C[C@H]1C[C@H]2[C@@H]3CCC4=CC(=O)C=C[C@]4(C)[C@@]3(F)[C@@H](O)C[C@]2(C)[C@@]1(O)C(=O)COP(=O)(O)O [betamethasone phosphate] | – | exacerbated degradation of HARC properties after heat treatment | – |
